Assay results from patent publication US4245100A, “Sydnonimine N-acyl derivatives and method for preparing same” (Vsesojuzny nauchno-issledovatelsky khimikofarmatsevtichesky …, priority 1977, dated 1981).

Legend:
central nervous system [1] = test: Stereotypic behavior reactions in rats; assay type: in vivo, white rat males; conditions: Rattus norvegicus, 1 h, dose causing stereotypic behavior reactions in 50% of rats one hour after administration, Litchfield and Wilkoxson method, read-out: ED50 (stereotypy)
Procedure: (§1) Psychostimulating activity of the compounds according to the present invention has been tested in experiments with mice and rats.
(§2) The experiments are performed with white male mice with a weight of 18-20 g and with white rat males with a weight of 120 to 140 g with the account of parameters characterising the influence of the compounds according to the present invention on the central nervous system as well as toxicity. Following this objective, there have been studied:
(2) capability of the compounds of inducing sterotypic behavior reactions;
(§3) To quantitatively evaluate the central stimulant activity of the compounds in the tests on mice the values of ED200 (locomotion) are determined, i.e. doses in which the compounds cause a two-fold potentiation of locomotory activity of the animals; in the tests performed with rats there are determined values of ED50 (stereotypy), i.e. doses in which the compounds, one hour after their administration, cause, in 50% of the test rats, stereotypic behavior reactions (ED50 doses are calculated by the Litchfield and Wilkoxsons method).
(§4) The compounds according to the present invention are sparingly soluble in water. They were administered to the animals in the form of a suspension prepared with the use of a 1% solution of carboxymethylcellulose with the addition of Tween-80® as an emulsifying agent. Since molecular weights of the test compounds differ from each other, their doses are calculated in mcM/kg.
(§5) In a special series of experiments there has been made a quantitative comparison of the central stimulant effect of the compounds according to the present invention as determined by tests of locomotory activity with mice and stereotypy with rats.

central nervous system [2] = test: Locomotory activity of mice (registered with instrument "Animex"); assay type: in vivo, white male mice; conditions: for ED200: Mus musculus, dose causing two-fold potentiation of locomotory activity, read-out: ED200 (locomotion)
Procedure: as §1, §2
(1) effect of the compounds on the locomotory activity of the animals (locomotory activity is registered using the instrument "Animex");
as §3, §4, §5

central nervous system [3] = conditions: prior art compound; cited from earlier work
Solubility = assay type: physicochemical
mice = conditions: statement on known psychostimulant compounds; cited from earlier work

Molecule `CC(Cc1ccccc1)[n+]1cc([N-]C(=O)Nc2ccc(Cl)cc2)on1` (racemic) [Example 4, dl-N-para-chlorophenyl carbamoyl-3-(α-methyl-β-phenylethyl) sydnonimine] has an ED50 (central nervous system [1]) of 20 µmol/kg and an ED200 (central nervous system [2]) of 18.2 µmol/kg.
Molecule `Cc1cccc(NC(=O)[N-]c2c[n+](C(C)Cc3ccccc3)no2)c1` (racemic) [X is NH--C6 H4 --CH3 --meta] has an ED50 (central nervous system [1]) of 39.9 µmol/kg and an ED200 (central nervous system [2]) of 32.3 µmol/kg.
In the case of `CC(Cc1ccccc1)[n+]1cc([N-]C(=O)Nc2ccccc2)on1` (racemic) [dl-N-phenylcarbamoyl-3-(α-methyl-β-phenylethyl) sydnonimine, reference compound], the ED50 (central nervous system [1]) is given as 107 µmol/kg, the “psychostimulant activity (known compound)” value (central nervous system [3]) is given as “possesses a psychostimulant activity” and the ED200 (central nervous system [2]) is given as 72.6 µmol/kg.
In the case of `C[C@H](Cc1ccccc1)[n+]1cc([N-]C(=O)Nc2ccccc2)on1` [Example 3, l-3-(α-methyl-β-phenylethyl)-N-phenylcarbamoylsydnonimine], the solubility in acetone (Solubility; acetone) is reported as “soluble”, the solubility in chloroform (Solubility; chloroform) is reported as “soluble” and the solubility in fats (Solubility; fats) is reported as “soluble”. The solubility in water (Solubility; water) was “substantially insoluble in water” and the “duration for which maximum locomotory activity is maintained” value (central nervous system [2]; dose of 40 mcM/kg) was 1 to 1.5 h.
For `CC(N)Cc1ccccc1` (centres unmarked) [amphetamine], the “phenomenon of "group toxicity" (known psychostimulant compounds)” value (mice) is listed as “characteristic”.
In the case of `C[C@H](N)Cc1ccccc1` [dextramphetamine], the “phenomenon of "group toxicity" (known psychostimulant compounds)” value (mice) is given as “characteristic”.
